For data set [1], the system named is Angiotensin II-induced pressor response. The experiment in a line: In vivo Angiotensin II antagonism in conscious normotensive rats. The conditions noted are these: Rattus norvegicus, po; P.O.; conscious normotensive male SD rats; Angiotensin II 0.1 μg/kg; read-out: ID50 (dose of test compound necessary to produce 50% inhibition of Angiotensin II-induced pressor response). The procedure:
The antagonistic activity of the compound (I) against the angiotensin II, which is prepared by the process according to a preferred embodiment of the invention, was evaluated with relation to rats.
In vivo Angiotensin II antagonism in conscious normotensive rats.
Male SD rats (Charles River Japan, 9 weeks, 300-350 g) were anesthetized with pentobarbital at 50 mg/kg i.p. Both the left femoral artery and the right femoral vein were cannulated. A heparin-filled catheter (50U/ml) was tunneled subcutaneously (s.c.) to the dorsal side of the neck and exteriorized.
Rats were permitted to recover overnight from anesthesia and allowed free access to water, but food was withheld.
The next day, the femoral artery catheter was connected to a pressure transducer (COBE 041-500-508, USA) coupled to a polygraph (GRASS Model 7, USA) to monitor arterial blood pressure. After an appropriate equilibration period, Angiotensin II (0.1 μg/kg) was injected in the femoral vein three times during the control period.
Test compounds were then administered orally (p.o.) at a constant volume of 2 ml/kg.
Angiotensin II challenges were repeated at set times thereafter.
ID50 values, the dose of test compound necessary to produce 50% inhibition of Angiotensin II-induced pressor response, were calculated from peak inhibition percentage with several doses of test compound.

A short description of data set [2]: Acute Toxicity Test (oral, mice). The data set is classed as in vivo. The settings on record: for LD50: mouse, in vivo, po. The procedure: Respective 5 mice of ICR system, which was distributed from Korean Laboratory Animal Center, were bred in a polycarbonate breeding box at a breeding environment of 23±1° C. of temperature, 55±5% of humidity, 10-15 times/hr of evacuation, 12 hr cycle of fluorescent light luminance, and 150-300 Lux of illumination.
After observing the mice for one week of acclimation breeding period, only normal mice were selected for laboratory work. The mice were fed with sterilized feed for laboratory animals, which was made by Cheil Jedang Co.,Ltd, and supplied with purified water to drink.
During the acclimation period, mice, who were evaluated to be healthy, were weighed and divided into groups randomly. Individual identification of laboratory animals was performed by indumentum pigment display and tag display per breeding box.
Establishment of dose was carried out according to a result of preliminary test in such a manner that a maximum dose group for both male and female was set to 5000 mg/kg and azeotropy was set to 1.71. Medium-high, medium and medium-low dose groups were respectively set as follows and a control group was administrated with physiological saline for injection.
Before administration of testing substances, body weight of the laboratory animals was in the range of 24-28 g in case of male and in the range of 19-28 g in case of female, respectively. The laboratory animals were aged 6 weeks.
Preparation of the testing substances was dissolved in physiological saline before administration. Dose was calculated according to the body weight which was measured before administration and dispensed by oral administration to a mouse who was in abrosia for 18 hours before testing.
Observation of clinical symptom such as general change, toxic symptom and mortality was performed for all laboratory animals once an hour during 6 hours after administration on the very administration day, and once a day from the next day to 14th day of administration.
Administration group, who was administered with testing substances, and the control group were weighed on the administration day, first, third, seventh, tenth and fourteenth days from the administration at a predetermined time for all animals who were alive.
After finish of the test, all animals were slightly anesthetized with ether and bleeding-killed. Appearance and internal organs of the animals were examined with naked eye carefully. Animals, who died during the text, were examined in the same manner.

These results are taken from patent US6294542A, “Pyrimidinone compounds, pharmaceutical compositions containing the compounds and the process for preparing the same” (Boryung Pharmaceutical Co. Ltd., priority 1998, dated 2001).

For orientation: LD50 means the dose expected to kill half of the subjects tested. A lower LD50 goes with greater toxicity.

For `CCCCc1nc(C)c(CC(=S)N2CCCC2)c(=O)n1Cc1ccc(-c2ccccc2-c2nnn[nH]2)cc1` [Compound 8, 2-n-butyl-5-pyrrolidinothiocarbonylmethyl-6-methyl-3-[[2'-(1H-tetrazol-5-yl)-biphenyl-4-yl]methyl]-pyrimidine-4(3H)-one], the ED50 in data set [1] worked out at 0.93 mg/kg. In addition, the “Final mortality (death number/total number)” value in data set [2] (female, 1000 mg/kg oral) was 0/5; in data set [2] (female, 1710 mg/kg oral) it was 0/5; in data set [2] (female, 2924 mg/kg oral), 2/5; in data set [2] (female, 5000 mg/kg oral), 4/5; in data set [2] (male, 1000 mg/kg oral) it was 0/5; in data set [2] (male, 1710 mg/kg oral), 2/5. Besides, the “Final mortality (death number/total number)” value in data set [2] (male, 2924 mg/kg oral) was 3/5; in data set [2] (male, 5000 mg/kg oral) it was 4/5. The “Mortality (death number/survival number)” value in data set [2] (female, 1000 mg/kg oral, day 0) is 0/5; in data set [2] (female, 1000 mg/kg oral, day 1), 0/5; in data set [2] (female, 1000 mg/kg oral, day 2), 0/5; in data set [2] (female, 1000 mg/kg oral, day 3), 0/5; in data set [2] (female, 1000 mg/kg oral, day 7), 0/5; in data set [2] (female, 1000 mg/kg oral, day 14), 0/5. Besides, the “Mortality (death number/survival number)” value in data set [2] (female, 1710 mg/kg oral, day 0) was 0/5; in data set [2] (female, 1710 mg/kg oral, day 1) it was 0/5; in data set [2] (female, 1710 mg/kg oral, day 2), 0/5; in data set [2] (female, 1710 mg/kg oral, day 3), 0/5; in data set [2] (female, 1710 mg/kg oral, day 7), 0/5; in data set [2] (female, 1710 mg/kg oral, day 14) it was 0/5. The “Mortality (death number/survival number)” value in data set [2] (female, 2924 mg/kg oral, day 0) was 2/5; in data set [2] (female, 2924 mg/kg oral, day 1) it was 0/3; in data set [2] (female, 2924 mg/kg oral, day 2) it was 0/3; in data set [2] (female, 2924 mg/kg oral, day 3), 0/3; in data set [2] (female, 2924 mg/kg oral, day 7) it was 0/3; in data set [2] (female, 2924 mg/kg oral, day 14), 0/3. Moreover, the “Mortality (death number/survival number)” value was 4/5 in data set [2] (female, 5000 mg/kg oral, day 0); 0/1 in data set [2] (female, 5000 mg/kg oral, day 1); 0/1 in data set [2] (female, 5000 mg/kg oral, day 2); 0/1 in data set [2] (female, 5000 mg/kg oral, day 3); 0/1 in data set [2] (female, 5000 mg/kg oral, day 7); 0/1 in data set [2] (female, 5000 mg/kg oral, day 14). The “Mortality (death number/survival number)” value in data set [2] (male, 1000 mg/kg oral, day 0) was 0/5; in data set [2] (male, 1000 mg/kg oral, day 1) it was 0/5; in data set [2] (male, 1000 mg/kg oral, day 2) it was 0/5; in data set [2] (male, 1000 mg/kg oral, day 3) it was 0/5; in data set [2] (male, 1000 mg/kg oral, day 7), 0/5; in data set [2] (male, 1000 mg/kg oral, day 14) it was 0/5. Besides, the “Mortality (death number/survival number)” value in data set [2] (male, 1710 mg/kg oral, day 0) is 2/5; in data set [2] (male, 1710 mg/kg oral, day 1), 0/3; in data set [2] (male, 1710 mg/kg oral, day 2), 0/3; in data set [2] (male, 1710 mg/kg oral, day 3), 0/3; in data set [2] (male, 1710 mg/kg oral, day 7), 0/3; in data set [2] (male, 1710 mg/kg oral, day 14), 0/3. Besides, the “Mortality (death number/survival number)” value in data set [2] (male, 2924 mg/kg oral, day 0) was 3/5; in data set [2] (male, 2924 mg/kg oral, day 1) it was 0/2; in data set [2] (male, 2924 mg/kg oral, day 2), 0/2; in data set [2] (male, 2924 mg/kg oral, day 3), 0/2; in data set [2] (male, 2924 mg/kg oral, day 7), 0/2; in data set [2] (male, 2924 mg/kg oral, day 14), 0/2. Further, the “Mortality (death number/survival number)” value in data set [2] (male, 5000 mg/kg oral, day 0) is 2/5; in data set [2] (male, 5000 mg/kg oral, day 1), 1/3; in data set [2] (male, 5000 mg/kg oral, day 2) it was 0/2; in data set [2] (male, 5000 mg/kg oral, day 3), 0/2; in data set [2] (male, 5000 mg/kg oral, day 7), 1/2; in data set [2] (male, 5000 mg/kg oral, day 14), 0/1. The LD50 came to 4060 mg/kg in data set [2] (female mice) and 3170 mg/kg in data set [2] (male mice).

`CCCCc1nc(C)c(CC(=S)N2CCCCC2)c(=O)n1Cc1ccc(-c2ccccc2-c2nnn[nH]2)cc1` [Compound 7, 2-n-butyl-5-piperidinothiocarbonylmethyl-6-methyl-3-[[2 '-(1H-tetrazol-5-yl)-biphenyl-4-yl]methyl]-pyrimidine-4(3H)-one]: in data set [1], the ED50 was below 3 mg/kg.

In the case of `CCCCc1nc(C)c(CC(=S)N2CCSCC2)c(=O)n1Cc1ccc(-c2ccccc2-c2nn[nH]n2)cc1` [Compound 5, 2-n-butyl-5-thiomorpholynothiocarbonylmethyl-6-methyl-3-[[2'-(1H-tetrazol-5-yl)-biphenyl-4-yl]methyl]-pyrimidine-4(3H)-one], in data set [1], the ED50 is below 3 mg/kg.

Turning to `CCCCc1nc(C)c(CC(=S)N2CCOCC2)c(=O)n1Cc1ccc(-c2ccccc2-c2nn[nH]n2)cc1` [Compound 6], the ED50 in data set [1] is below 3 mg/kg.

`CCCCc1nc(C)c(CC(=S)N(CC)CC)c(=O)n1Cc1ccc(-c2ccccc2-c2nnn[nH]2)cc1` [Compound 3, 2-n-butyl-5-diethylaminothiocarbonylmethyl-6-methyl-3-[[2'-(1H-tetrazol-5-yl)biphenyl-4-yl]methyl]-pyrimidine-4(3H)-one]: in data set [1], the ED50 is below 3 mg/kg.

As to `CCCCc1nc(C)c(CC(N)=S)c(=O)n1Cc1ccc(-c2ccccc2-c2nnn[nH]2)cc1` [Compound 1, 2-n-butyl-5-aminothiocarbonylmethyl-6-methyl-3-[[2'-(1H-tetrazol-5-yl)biphenyl-4-yl]methyl]-pyrimidine-4(3H)-one], the ED50 in data set [1] was above 3 mg/kg.

As for `CCCCc1nc(C)c(CC(=S)N2CCC2)c(=O)n1Cc1ccc(-c2ccccc2-c2nn[nH]n2)cc1` [Compound 9, 2-n-butyl-5-azetidinothiocarbonylmethyl-6-methyl-3-[[2'-(1H-tetrazol-5-yl)-biphenyl-4-yl]methyl]-pyrimidine-4 (3H)-one], the ED50 in data set [1] was determined as 1.19 mg/kg.

For the compound `CCCCc1nc(C)c(CC(=S)N2CCCCCCC2)c(=O)n1Cc1ccc(-c2ccccc2-c2nn[nH]n2)cc1` [Compound 4, 2-n-butyl-5-heptamethyleniminothiocarbonyl-methyl-6-methyl-3-[[2'-(1H-tetrazol-5-yl)biphenyl-4-yl]methyl]-pyrimidine-4(3H)-one], the ED50 in data set [1] stood at 3.1 mg/kg.
